Measured values taken from paper PMC9014651 (Bioorganic Chemistry, 2022).
Where a SMILES comes first, the peptide text is derived from it.

What was measured:
M^pro = settings: cited from earlier work
SARS-CoV-2 M^pro [1] = molecular target: T1, SARS-CoV-2 M^pro (Severe acute respiratory syndrome coronavirus 2, UniProt P0DTD1); assay: FRET percent inhibition screening of M^pro inhibitors; type: biochemical; settings: control experiments
SARS-CoV-2 M^pro [2] = molecular target: T1, SARS-CoV-2 M^pro; assay: IC50 measurement on M^pro; type: biochemical

CC(C)(C)NC(=O)N[C@H](C(=O)N1C[C@H]2[C@@H]([C@H]1C(=O)NC(CC1CCC1)C(=O)C(N)=O)C2(C)C)C(C)(C)C (stereo partly shown) [boceprevir]
IC50 value range (M^pro) (M^pro): single-digit to sub-micromolar

O=C(CC(c1ccccc1)c1ccccc1)NO [N-hydroxy-3,3-diphenylpropanamide]
Inhibitory effect on M^pro (control experiment) (SARS-CoV-2 M^pro [1]): no inhibitory effect

CCN(CC)C(=S)SSC(=S)N(CC)CC [disulfiram]
Effect of binding on M^pro stability (thermal shift) (M^pro): destabilization

CC(C)C[C@H](NC(=O)OCc1ccccc1)C(=O)N[C@@H](CC1CCNC1=O)C(O)S(=O)(=O)[O-].[Na+] (stereo partly shown) [GC-376]
IC50 value range (M^pro) (M^pro): single-digit to sub-micromolar

O=c1c2ccccc2sn1-c1ccccc1 [Ebsulfur]
Reversibility of M^pro inhibition (M^pro): irreversibly inhibit

Cc1ccccc1NC(=S)N/N=C/c1ccccc1O [2n, (E)-1-(2-hydroxybenzylidene)-4-o-tolylthiosemicarbazide]
IC50 (SARS-CoV-2 M^pro [2]): 20.7 µM

O=c1c2ccccc2[se]n1-c1ccccc1 [Ebselen]
Effect of binding on M^pro stability (thermal shift) (M^pro): destabilization
Reversibility of M^pro inhibition (M^pro): irreversibly inhibit

CSCC[C@@H](C=O)NC(=O)[C@H](CC(C)C)NC(=O)[C@H](CC(C)C)NC(C)=O [calpain inhibitors II] (Ac-Leu-Leu-Met-aldehyde)
IC50 value range (M^pro) (M^pro): single-digit to sub-micromolar

CCCC(NC(=O)C(CC(C)C)NC(=O)OCc1ccccc1)C(=O)C(=O)NCc1ccccn1 (stereo not shown) [XII]
IC50 value range (M^pro) (M^pro): single-digit to sub-micromolar
